Values of other authors as cited in patent US20040047835A1, “Combinatorial drug therapy using polymer drug conjugates” (priority 2002, published 2004).
Read-outs that look alike come from different tables or passages of the source.

Tests used:
mammary MCa-4 tumor = mammary MCa-4 tumor model; radiation preceded drug injection
ovarian Oca-1 carcinoma = details: equivalent paclitaxel dose of 60 mg/kg 24 h after tumor irradiation; versus radiation and paclitaxel
tumor-bearing hosts = details: compared with free (unconjugated) paclitaxel

For `CC(=O)O[C@H]1C(=O)[C@@]2(C)[C@H]([C@H](OC(=O)c3ccccc3)[C@]3(O)C[C@H](OC(=O)[C@H](O)[C@@H](NC(=O)c4ccccc4)c4ccccc4)C(C)=C1C3(C)C)[C@]1(OC(C)=O)CO[C@@H]1C[C@@H]2O` [paclitaxel, reference compound], the “effect on cell cycle” value (cell cycle) is given as “induced a G2/M arrest” and the “interaction of combined radiation and drug” value (mammary MCa-4 tumor) is given as “additive or sub-additive interaction”.
For “poly(L-glutamic acid)-paclitaxel [PG-TXL]”, the “effect on cell cycle” value (cell cycle) is given as “induced a G2/M arrest”, the “tumor growth delay, combined with radiation” value (ovarian Oca-1 carcinoma) is given as “significantly greater tumor growth delay” and the “anti-tumor activity / efficacy” value (tumor-bearing hosts) is given as “increased efficacy”. For the same compound, the “anti-tumor activity / efficacy” value (tumor-bearing hosts; listed as PGTXL) was “superior anti-tumor activity” and the “interaction of combined radiation and drug” value (mammary MCa-4 tumor) was “synergistic interaction”.
